Key:
[1] = AUC (0 to t) in Sprague-Dawley rat at 10 mg/kg, po by LC-MS/MS method; format: ADME, organism-based; conditions: in vivo
[2] = target: Tyrosine-protein kinase JAK1 (Homo sapiens) (UniProt P23458); assay: Inhibition of wild-type human partial length JAK1 JH2 pseudokinase domain (R537 to D855 residues) expressed in mammalian expression system assessed as residual activity at 1 uM by Kinomescan method relative to control
[3] = Elimination half-life in Sprague-Dawley rat at 10 mg/kg, po by LC-MS/MS method; format: ADME, organism-based; conditions: in vivo, read-out: beta t1/2 (converted)
[4] = target: Receptor tyrosine-protein kinase erbB-4 (Homo sapiens) (UniProt Q15303); assay: Inhibition of wild-type human partial length ERBB4 (L690 to K994 residues) expressed in bacterial expression system assessed as residual activity at 1 uM by Kinomescan method relative to control
[5] = target: Beta-adrenergic receptor kinase 1 (Homo sapiens) (UniProt P25098); assay: Inhibition of wild-type human full length GRK2 (M1 to L689 residues) expressed in mammalian expression system assessed as residual activity at 1 uM by Kinomescan method relative to control
[6] = target: Macrophage colony-stimulating factor 1 receptor (Homo sapiens) (UniProt P07333); assay: Inhibition of wild-type human partial length autoinhibited CSF1R (Y538 to S939 residues) expressed in mammalian expression system assessed as residual activity at 1 uM by Kinomescan method relative to control
[7] = target: Fibroblast growth factor receptor 3 (Homo sapiens) (UniProt P22607); assay: Inhibition of wild-type human partial length FGFR3 (R442 to S771 residues) expressed in bacterial expression system assessed as residual activity at 1 uM by Kinomescan method relative to control
[8] = target: Tyrosine-protein kinase Fes/Fps (Homo sapiens) (UniProt P07332); assay: Inhibition of wild-type human partial length FES (I527 to R822 residues) expressed in bacterial expression system assessed as residual activity at 1 uM by Kinomescan method relative to control
[9] = target: Misshapen-like kinase 1 (Homo sapiens) (UniProt Q8N4C8); assay: Inhibition of wild-type human partial length MINK (M1 to K312 residues) expressed in mammalian expression system assessed as residual activity at 1 uM by Kinomescan method relative to control
MV4-11 = assay: Growth inhibition of human MV411 cells; format: functional; conditions: Homo sapiens, MV4-11
[10] = target: Phosphatidylinositol 4-phosphate 5-kinase type-1 gamma (Homo sapiens) (UniProt O60331); assay: Inhibition of wild-type human partial length PIP5K1C (M1 to T668 residues) expressed in mammalian expression system assessed as residual activity at 1 uM by Kinomescan method relative to control
[11] = target: Myotonin-protein kinase (Homo sapiens) (UniProt Q09013); assay: Inhibition of wild-type human partial length DMPK (V47 to V415 residues) expressed in bacterial expression system assessed as residual activity at 1 uM by Kinomescan method relative to control
[12] = target: Activin receptor type-2A (Homo sapiens) (UniProt P27037); assay: Inhibition of wild-type human ACVR2A (V171 to T499 residues) expressed in bacterial expression system assessed as residual activity at 1 uM by Kinomescan method relative to control
[13] = target: Receptor tyrosine-protein kinase erbB-3 (Homo sapiens) (UniProt P21860); assay: Inhibition of wild-type human partial length ERBB3 (G684 to A987 residues) expressed in mammalian expression system assessed as residual activity at 1 uM by Kinomescan method relative to control
[14] = target: 3-phosphoinositide-dependent protein kinase 1 (Homo sapiens) (UniProt O15530); assay: Inhibition of wild-type human full length PDPK1 (M1 to Q556 residues) expressed in bacterial expression system assessed as residual activity at 1 uM by Kinomescan method relative to control
[15] = target: Death-associated protein kinase 1 (Homo sapiens) (UniProt P53355); assay: Inhibition of wild-type human partial length DAPK1 (M1 to F296 residues) expressed in bacterial expression system assessed as residual activity at 1 uM by Kinomescan method relative to control
[16] = target: Mast/stem cell growth factor receptor Kit (Homo sapiens) (UniProt P10721); assay: Inhibition of wild-type human partial length KIT (I571 to D952 residues) expressed in bacterial expression system assessed as residual activity at 1 uM by Kinomescan method relative to control
[17] = target: Serine/threonine-protein kinase Sgk2 (Homo sapiens) (UniProt Q9HBY8); assay: Inhibition of wild-type human partial length SGK2 (L54 to C427 residues) expressed in mammalian expression system assessed as residual activity at 1 uM by Kinomescan method relative to control
[18] = target: Proto-oncogene tyrosine-protein kinase Src (Homo sapiens) (UniProt P12931); assay: Inhibition of wild-type human partial length SRC (L240 to L536 residues) expressed in bacterial expression system assessed as residual activity at 1 uM by Kinomescan method relative to control
[19] = target: Receptor-interacting serine/threonine-protein kinase 4 (Homo sapiens) (UniProt P57078); assay: Inhibition of wild-type human partial length RIPK4 (M1 to V303 residues) expressed in mammalian expression system assessed as residual activity at 1 uM by Kinomescan method relative to control
[20] = target: Cyclin-dependent kinase 14 (Homo sapiens) (UniProt O94921); assay: Inhibition of wild-type human full length PFTK1 (M1 to H451 residues) expressed in bacterial expression system assessed as residual activity at 1 uM by Kinomescan method relative to control
[21] = target: Protein kinase C delta type (Homo sapiens) (UniProt Q05655); assay: Inhibition of wild-type human partial length PRKCD (Q328 to D676 residues) expressed in bacterial expression system assessed as residual activity at 1 uM by Kinomescan method relative to control
[22] = target: Protein-tyrosine kinase 6 (Homo sapiens) (UniProt Q13882); assay: Inhibition of wild-type human partial length BRK (L166 to T451 residues) expressed in bacterial expression system assessed as residual activity at 1 uM by Kinomescan method relative to control
[23] = target: Serine/threonine-protein kinase PLK2 (Homo sapiens) (UniProt Q9NYY3); assay: Inhibition of wild-type human partial length PLK2 (H58 to F354 residues) expressed in mammalian expression system assessed as residual activity at 1 uM by Kinomescan method relative to control
[24] = target: Mitogen-activated protein kinase 6 (Homo sapiens) (UniProt Q16659); assay: Inhibition of wild-type human partial length ERK3 (M1 to P413 residues) expressed in bacterial expression system assessed as residual activity at 1 uM by Kinomescan method relative to control
[25] = target: Serine/threonine-protein kinase 17B (Homo sapiens) (UniProt O94768); assay: Inhibition of wild-type human full length DRAK2 (M1 to C372 residues) expressed in bacterial expression system assessed as residual activity at 1 uM by Kinomescan method relative to control
[26] = target: Serine/threonine-protein kinase BRSK2 (Homo sapiens) (UniProt Q8IWQ3); assay: Inhibition of wild-type human full length BRSK2 (M1 to L674 residues) expressed in bacterial expression system assessed as residual activity at 1 uM by Kinomescan method relative to control
Serine/threonine-protein kinase BRSK2 (Homo sapiens), sequence (Q8IWQ3 whole entry, the tested form may be a part): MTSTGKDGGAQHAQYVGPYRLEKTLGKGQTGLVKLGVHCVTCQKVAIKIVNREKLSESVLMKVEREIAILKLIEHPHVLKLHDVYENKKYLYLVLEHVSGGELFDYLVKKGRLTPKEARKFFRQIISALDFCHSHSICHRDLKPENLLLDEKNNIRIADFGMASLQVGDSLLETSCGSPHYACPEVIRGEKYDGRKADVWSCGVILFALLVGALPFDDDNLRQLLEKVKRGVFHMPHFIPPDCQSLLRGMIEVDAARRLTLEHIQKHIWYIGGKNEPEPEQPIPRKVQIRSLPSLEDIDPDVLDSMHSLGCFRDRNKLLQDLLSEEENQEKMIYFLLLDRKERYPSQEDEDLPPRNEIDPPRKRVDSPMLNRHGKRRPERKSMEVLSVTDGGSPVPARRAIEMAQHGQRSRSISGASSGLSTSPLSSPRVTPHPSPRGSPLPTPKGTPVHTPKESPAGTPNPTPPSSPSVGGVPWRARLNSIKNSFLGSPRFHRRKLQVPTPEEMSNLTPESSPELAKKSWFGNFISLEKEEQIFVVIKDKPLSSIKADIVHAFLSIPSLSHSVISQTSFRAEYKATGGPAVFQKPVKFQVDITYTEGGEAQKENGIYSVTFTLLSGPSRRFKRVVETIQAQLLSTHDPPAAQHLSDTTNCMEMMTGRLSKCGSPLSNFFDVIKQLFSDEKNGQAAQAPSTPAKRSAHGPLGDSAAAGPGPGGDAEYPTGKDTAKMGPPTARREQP

Protein kinase C delta type (Homo sapiens), sequence (Q05655 whole entry, looked up, the tested form may be a part): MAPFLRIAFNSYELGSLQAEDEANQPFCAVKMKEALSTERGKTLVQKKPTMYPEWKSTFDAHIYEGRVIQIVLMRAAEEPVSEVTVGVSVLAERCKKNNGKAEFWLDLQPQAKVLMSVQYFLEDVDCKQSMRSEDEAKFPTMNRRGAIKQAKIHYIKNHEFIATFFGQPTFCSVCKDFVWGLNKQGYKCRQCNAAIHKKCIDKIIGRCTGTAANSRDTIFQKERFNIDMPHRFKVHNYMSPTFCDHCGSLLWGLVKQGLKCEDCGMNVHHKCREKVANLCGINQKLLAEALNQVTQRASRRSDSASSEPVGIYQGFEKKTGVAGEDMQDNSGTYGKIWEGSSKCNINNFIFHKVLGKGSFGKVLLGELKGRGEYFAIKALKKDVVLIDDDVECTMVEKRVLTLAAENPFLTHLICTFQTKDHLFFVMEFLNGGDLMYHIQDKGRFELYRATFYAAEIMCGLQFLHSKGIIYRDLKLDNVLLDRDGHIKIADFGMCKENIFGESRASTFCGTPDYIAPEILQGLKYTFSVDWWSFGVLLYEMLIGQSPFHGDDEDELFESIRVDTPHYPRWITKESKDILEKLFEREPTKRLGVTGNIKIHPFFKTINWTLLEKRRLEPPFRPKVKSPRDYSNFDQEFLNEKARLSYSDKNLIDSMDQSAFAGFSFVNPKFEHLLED
Cyclin-dependent kinase 14 (Homo sapiens), sequence (O94921 whole entry, the tested form may be a part): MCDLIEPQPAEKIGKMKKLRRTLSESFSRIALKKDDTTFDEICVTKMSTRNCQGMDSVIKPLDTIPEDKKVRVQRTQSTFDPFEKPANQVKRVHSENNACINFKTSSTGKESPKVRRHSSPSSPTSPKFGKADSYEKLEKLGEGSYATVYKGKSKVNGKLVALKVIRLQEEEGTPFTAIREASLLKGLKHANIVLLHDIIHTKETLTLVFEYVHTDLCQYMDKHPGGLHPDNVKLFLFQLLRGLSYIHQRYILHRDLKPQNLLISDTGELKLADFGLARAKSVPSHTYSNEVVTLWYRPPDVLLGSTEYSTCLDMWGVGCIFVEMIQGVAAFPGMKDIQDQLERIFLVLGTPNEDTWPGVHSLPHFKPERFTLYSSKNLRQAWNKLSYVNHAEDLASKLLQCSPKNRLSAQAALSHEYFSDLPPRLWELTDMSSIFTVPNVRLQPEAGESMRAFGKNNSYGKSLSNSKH
Serine/threonine-protein kinase PLK2 (Homo sapiens), sequence (Q9NYY3 whole entry, looked up, the tested form may be a part): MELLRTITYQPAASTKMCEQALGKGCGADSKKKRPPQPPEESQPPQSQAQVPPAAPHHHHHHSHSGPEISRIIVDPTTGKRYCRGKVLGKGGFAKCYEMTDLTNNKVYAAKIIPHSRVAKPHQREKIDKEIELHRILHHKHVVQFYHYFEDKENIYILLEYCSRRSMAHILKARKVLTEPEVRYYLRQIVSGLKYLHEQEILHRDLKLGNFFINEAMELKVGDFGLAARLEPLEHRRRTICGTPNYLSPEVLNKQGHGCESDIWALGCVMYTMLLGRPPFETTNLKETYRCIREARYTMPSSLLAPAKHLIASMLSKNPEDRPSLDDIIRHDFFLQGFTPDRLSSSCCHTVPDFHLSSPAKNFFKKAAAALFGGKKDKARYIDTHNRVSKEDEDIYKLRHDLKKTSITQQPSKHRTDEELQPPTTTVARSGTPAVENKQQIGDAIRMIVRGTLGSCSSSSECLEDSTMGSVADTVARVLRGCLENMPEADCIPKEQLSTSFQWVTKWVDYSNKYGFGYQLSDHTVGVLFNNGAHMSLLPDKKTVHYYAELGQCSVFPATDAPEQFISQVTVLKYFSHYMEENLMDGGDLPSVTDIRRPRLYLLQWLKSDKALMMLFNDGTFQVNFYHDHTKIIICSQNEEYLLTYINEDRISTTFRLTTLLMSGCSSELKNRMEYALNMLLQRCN
Beta-adrenergic receptor kinase 1 (Homo sapiens), sequence (P25098 whole entry, the tested form may be a part): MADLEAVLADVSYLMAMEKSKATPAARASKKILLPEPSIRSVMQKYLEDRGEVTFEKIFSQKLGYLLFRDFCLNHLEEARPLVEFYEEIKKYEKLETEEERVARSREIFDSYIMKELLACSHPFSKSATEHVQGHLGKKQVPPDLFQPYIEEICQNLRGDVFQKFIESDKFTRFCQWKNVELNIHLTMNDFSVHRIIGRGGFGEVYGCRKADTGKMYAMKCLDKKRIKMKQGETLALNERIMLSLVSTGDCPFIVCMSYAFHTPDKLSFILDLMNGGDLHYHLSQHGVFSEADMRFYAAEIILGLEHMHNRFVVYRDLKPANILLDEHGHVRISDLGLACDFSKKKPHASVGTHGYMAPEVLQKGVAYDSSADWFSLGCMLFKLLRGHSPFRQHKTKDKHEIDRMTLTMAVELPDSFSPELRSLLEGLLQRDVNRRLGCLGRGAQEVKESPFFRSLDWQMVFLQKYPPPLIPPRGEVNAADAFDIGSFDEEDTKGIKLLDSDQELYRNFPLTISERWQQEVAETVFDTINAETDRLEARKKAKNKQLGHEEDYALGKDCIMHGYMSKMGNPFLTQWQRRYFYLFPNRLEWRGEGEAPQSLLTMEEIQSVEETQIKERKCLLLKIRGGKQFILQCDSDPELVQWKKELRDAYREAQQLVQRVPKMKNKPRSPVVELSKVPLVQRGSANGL
Mast/stem cell growth factor receptor Kit (Homo sapiens), sequence (P10721 whole entry, the tested form may be a part): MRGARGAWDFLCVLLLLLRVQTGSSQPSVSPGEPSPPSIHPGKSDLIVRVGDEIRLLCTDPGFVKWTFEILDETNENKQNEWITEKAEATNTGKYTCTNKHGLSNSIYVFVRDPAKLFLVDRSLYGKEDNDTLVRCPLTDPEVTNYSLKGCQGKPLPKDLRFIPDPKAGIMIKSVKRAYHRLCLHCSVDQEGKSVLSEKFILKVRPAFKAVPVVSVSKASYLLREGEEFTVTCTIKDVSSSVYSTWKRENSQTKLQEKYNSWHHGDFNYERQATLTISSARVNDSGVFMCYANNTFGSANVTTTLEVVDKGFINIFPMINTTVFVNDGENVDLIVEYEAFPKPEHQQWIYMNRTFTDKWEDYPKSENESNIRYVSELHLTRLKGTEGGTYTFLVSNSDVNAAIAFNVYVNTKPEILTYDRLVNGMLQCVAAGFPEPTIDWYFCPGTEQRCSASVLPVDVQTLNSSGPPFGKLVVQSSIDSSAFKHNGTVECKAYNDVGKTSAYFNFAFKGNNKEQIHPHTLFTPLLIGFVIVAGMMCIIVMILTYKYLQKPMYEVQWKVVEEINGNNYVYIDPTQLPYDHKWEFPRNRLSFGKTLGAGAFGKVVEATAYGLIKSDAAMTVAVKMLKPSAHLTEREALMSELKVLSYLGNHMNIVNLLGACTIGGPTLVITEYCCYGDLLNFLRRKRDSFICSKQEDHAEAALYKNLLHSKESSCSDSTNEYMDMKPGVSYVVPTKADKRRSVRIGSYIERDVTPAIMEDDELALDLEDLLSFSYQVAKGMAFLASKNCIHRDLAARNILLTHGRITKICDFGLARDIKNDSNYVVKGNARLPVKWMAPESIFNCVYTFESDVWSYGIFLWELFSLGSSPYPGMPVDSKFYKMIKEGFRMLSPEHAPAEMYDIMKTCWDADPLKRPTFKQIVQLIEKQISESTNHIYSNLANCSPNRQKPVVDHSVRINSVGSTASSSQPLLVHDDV
Tyrosine-protein kinase Fes/Fps (Homo sapiens), sequence (P07332 whole entry, the tested form may be a part): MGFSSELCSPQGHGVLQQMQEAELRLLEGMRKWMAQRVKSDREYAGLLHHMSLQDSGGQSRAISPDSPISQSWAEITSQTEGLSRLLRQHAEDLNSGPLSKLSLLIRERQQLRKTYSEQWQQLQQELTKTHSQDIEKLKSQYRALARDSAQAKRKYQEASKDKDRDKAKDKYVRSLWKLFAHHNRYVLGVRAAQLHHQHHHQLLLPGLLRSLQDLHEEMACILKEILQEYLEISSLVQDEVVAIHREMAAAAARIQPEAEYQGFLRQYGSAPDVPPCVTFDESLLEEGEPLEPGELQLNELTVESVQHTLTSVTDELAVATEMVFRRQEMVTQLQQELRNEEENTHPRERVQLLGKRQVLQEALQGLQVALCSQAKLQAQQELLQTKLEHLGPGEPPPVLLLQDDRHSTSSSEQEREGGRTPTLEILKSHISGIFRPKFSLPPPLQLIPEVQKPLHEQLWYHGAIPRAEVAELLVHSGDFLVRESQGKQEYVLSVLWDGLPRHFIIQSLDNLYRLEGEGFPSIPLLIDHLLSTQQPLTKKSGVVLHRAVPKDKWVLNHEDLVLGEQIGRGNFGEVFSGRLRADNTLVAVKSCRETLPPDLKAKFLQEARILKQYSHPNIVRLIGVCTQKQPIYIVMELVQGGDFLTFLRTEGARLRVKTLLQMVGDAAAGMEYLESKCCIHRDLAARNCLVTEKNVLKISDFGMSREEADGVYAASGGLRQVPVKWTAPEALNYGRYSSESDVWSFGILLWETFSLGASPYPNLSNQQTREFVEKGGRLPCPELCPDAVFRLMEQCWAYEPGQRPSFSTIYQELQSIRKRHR

## C=CC(=O)Nc1cc(Nc2cc(-c3cccc(NC(=O)c4ccc(C(C)(C)C)cc4)c3C)cn(C)c2=O)ccc1C(=O)N1CCOCC1
[1]
  AUC(0-t): 22 ng·h/mL
[2]
  Activity: 86%
[3]
  half-life: 1.33 h
[4]
  Activity: 95%
[5]
  Activity: 100%
[6]
  Activity: 100%
[7]
  Activity: 89%
[8]
  Activity: 84%
[9]
  Activity: 82%
MV4-11
  GI50: 2100 nM
[10]
  Activity: 100%
[11]
  Activity: 95%
[12]
  Activity: 90%
[13]
  Activity: 88%
[14]
  Activity: 90%
[15]
  Activity: 100%
[16]
  Activity: 98%
[17]
  Activity: 93%
[18]
  Activity: 99%
[19]
  Activity: 94%
[20]
  Activity: 93%
[21]
  Activity: 96%
[22]
  Activity: 96%
[23]
  Activity: 100%
[24]
  Activity: 100%
[25]
  Activity: 94%
[26]
  Activity: 92%
